Results taken from patent US20230086702A1, “SUBSTITUTED 2-AMINO-PYRAZOLYL-[1,2,4]TRIAZOLO[1,5A]PYRIDINE DERIVATIVES AND USE THEREOF” (The Johns Hopkins University, priority 2019, published 2023).

What was measured:
LZK = target: T1, LZK (Homo sapiens, UniProt O43283); test: LZK biochemical assay (TR-FRET, MKK7 phosphorylation); conditions: LZK catalytic domain, MKK7 substrate, 15 μM ATP
T1 construct: 10 nM LZK, catalytic domain, Carna Biosiences in assay buffer; purchased Carna Biosciences ('Carna Biosiences' [sic])
T1 sequence (O43283 168-409 limits assumed): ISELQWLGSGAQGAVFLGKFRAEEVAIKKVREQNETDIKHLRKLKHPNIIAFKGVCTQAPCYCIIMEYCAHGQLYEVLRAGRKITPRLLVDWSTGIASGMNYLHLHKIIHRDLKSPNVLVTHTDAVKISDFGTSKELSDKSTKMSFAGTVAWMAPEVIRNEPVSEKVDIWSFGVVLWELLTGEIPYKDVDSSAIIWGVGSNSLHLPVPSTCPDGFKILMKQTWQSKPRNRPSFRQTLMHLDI
Experimental: (§1) LZK assay is a biochemical assay format designed to screen for inhibitors of LZK. Enzymatic activity of LZK is measured by monitoring phosphorylation of the physiological substrate MKK7 (MAP2K7, Dual specificity mitogen-activated protein kinase kinase 7). Phosphorylation is detected by a TR-FRET system whereby His-tagged MKK7 is labeled by a XL665-labeled anti-His antibody (FRET acceptor, emission 665 nm). LZK phosphorylates MKK7 at T275/S277 which is detected by an Eu-labeled anti-phospho-MKK7 (T275/S277) antibody (FRET donor, excitation 340 nm). Phosphorylation of MKK7 results in an increased TR-FRET signal (Ratio XL665-channel/Eu-channel) and inhibition of enzymatic activity of LZK decreases the TR-FRET signal.
All indicated concentrations final concentrations.
(§2) Detection buffer: 25 mM Tris/HCl pH 7.5, 100 mM EDTA, 100 mM NaCl, 200 mM KF, 0.01% Tween 20, 1:500 Smart Block.

DLK = target: T2, DLK (Homo sapiens, UniProt Q12852); test: DLK biochemical assay (TR-FRET, MKK7 phosphorylation); conditions: DLK catalytic domain, MKK7 substrate, 60 μM ATP
T2 construct: 10 nM DLK, catalytic domain, Carna Biosiences; purchased Carna Biosciences ('Carna Biosiences' [sic])
T2 sequence (Q12852 125-366 limits assumed): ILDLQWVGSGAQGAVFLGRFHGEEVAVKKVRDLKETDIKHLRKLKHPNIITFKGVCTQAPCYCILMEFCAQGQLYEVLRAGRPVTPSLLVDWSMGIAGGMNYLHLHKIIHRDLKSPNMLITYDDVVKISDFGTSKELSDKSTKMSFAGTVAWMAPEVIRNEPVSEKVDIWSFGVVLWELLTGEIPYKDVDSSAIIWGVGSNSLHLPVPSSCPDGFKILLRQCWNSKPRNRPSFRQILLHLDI
Experimental: as §1, with “DLK assay” for “LZK assay”, “of DLK.” for “of LZK.”, “of DLK” for “of LZK”, “nm). DLK” for “nm). LZK”, “at T275/S277,” for “at T275/S277”
All indicated concentrations are final concentrations.
as §2

Row | SMILES | IC50 (LZK) | IC50 (DLK)
1 | CC[C@H](C)NC(=O)c1cc(-c2cnn(C(c3ccc(F)cc3)C(C)C)c2)cn2nc(N)nc12 (mixture of isomers) [Example I-43, 2-Amino-N-[(2S)-butan-2-yl]-6-{1-[1-(4-fluorophenyl)-2-methylpropyl]-1H-pyrazol-4-yl}[1,2,4]triazolo[1,5-a]pyridine-8-carboxamide] | 66 nM | 2.9 nM
2 | CCC(c1ccc(N2CCOCC2)cc1)n1cc(-c2cc(C(=O)N[C@@H](C)CC)c3nc(N)nn3c2)cn1 (mixture of isomers) [Example I-47, 2-Amino-N-[(2S)-butan-2-yl]-6-(1-{1-[4-(morpholin-4-yl)phenyl]propyl}-1H-pyrazol-4-yl)[1,2,4]triazolo[1,5-a]pyridine-8-carboxamide] | 40 nM | 3.8 nM
3 | CC[C@H](C)NC(=O)c1cc(-c2cnn(C(c3ccccc3)C3CCOCC3)c2)cc2nc(N)nn12 (mixture of isomers) [Example I-51, 2-Amino-N-[(2S)-butan-2-yl]-7-{1-[phenyl(tetrahydro-2H-pyran-4-yl)methyl]-1H-pyrazol-4-yl}[1,2,4]triazolo[1,5-a]pyridine-5-carboxamide] | 8.7 nM | 1.8 nM
4 | CCC(c1ccc(F)cn1)n1cc(-c2cc(C(=O)N[C@@H](C)CC)c3nc(N)nn3c2)cn1 (mixture of isomers) [Example I-55, 2-Amino-N-[(2S)-butan-2-yl]-6-{1-[1-(5-fluoropyridin-2-yl)propyl]-1H-pyrazol-4-yl}[1,2,4]triazolo[1,5-a]pyridine-8-carboxamide] | 49 nM | 6.7 nM
5 | CCC(c1cncc(Cl)c1)n1cc(-c2cc(C(=O)N[C@@H](C)CC)c3nc(N)nn3c2)cn1 (mixture of isomers) [Example I-58, 2-Amino-N-[(2S)-butan-2-yl]-6-{1-[1-(5-chloropyridin-3-yl)propyl]-1H-pyrazol-4-yl}[1,2,4]triazolo[1,5-a]pyridine-8-carboxamide] | 16 nM | 1.6 nM
6 | CC[C@H](C)NC(=O)c1cc(-c2cnn(C(c3cncc(Cl)c3)C(C)C)c2)cn2nc(N)nc12 (mixture of isomers) [Example I-61, 2-Amino-N-[(2S)-butan-2-yl]-6-{1-[1-(5-chloropyridin-3-yl)-2-methylpropyl]-1H-pyrazol-4-yl}[1,2,4]triazolo[1,5-a]pyridine-8-carboxamide] | 3.3 nM | 0.6 nM
7 | CCC(c1ccc(C(F)F)nc1)n1cc(-c2cc(C(=O)N[C@@H](C)CC)c3nc(N)nn3c2)cn1 (mixture of isomers) [Example I-64, 2-Amino-N-[(2S)-butan-2-yl]-6-(1-{1-[6-(difluoromethyl)pyridin-3-yl]propyl}-1H-pyrazol-4-yl)[1,2,4]triazolo[1,5-a]pyridine-8-carboxamide] | 7 nM | 1.7 nM
8 | CC[C@H](C)NC(=O)c1cc(-c2cnn(C(c3ccc(C(F)F)nc3)C(C)C)c2)cn2nc(N)nc12 (mixture of isomers) [Example I-67, 2-Amino-N-[(2S)-butan-2-yl]-6-(1-{1-[6-(difluoromethyl)pyridin-3-yl]-2-methylpropyl}-1H-pyrazol-4-yl)[1,2,4]triazolo[1,5-a]pyridine-8-carboxamide] | 5.6 nM | 1.1 nM
9 | CC[C@H](C)NC(=O)c1cc(-c2cnn(C(c3ccc(C(F)(F)F)nc3)C(C)C)c2)cn2nc(N)nc12 (mixture of isomers) [Example I-73, 2-Amino-N-[(2S)-butan-2-yl]-6-(1-{2-methyl-1-[6-(trifluoromethyl)pyridin-3-yl]propyl}-1H-pyrazol-4-yl)[1,2,4]triazolo[1,5-a]pyridine-8-carboxamide] | 5.8 nM | 1.6 nM
10 | CC[C@H](C)NC(=O)c1cc(-c2cnn(C(c3ccc(C(F)(F)F)nc3)C3CCOCC3)c2)cn2nc(N)nc12 (mixture of isomers) [Example I-76, 2-Amino-N-[(2S)-butan-2-yl]-6-(1-{tetrahydro-2H-pyran-4-yl[6-(trifluoromethyl)pyridin-3-yl]methyl}-1H-pyrazol-4-yl)[1,2,4]triazolo[1,5-a]pyridine-8-carboxamide] | 1.1 nM | 0.5 nM
11 | CC[C@H](C)NC(=O)c1cc(-c2cnn(C(c3ccc(C(F)(F)F)nc3)C3CCN(C(=O)OC(C)(C)C)CC3)c2)cn2nc(N)nc12 (mixture of isomers) [Example I-79, tert-Butyl 4-{(4-{2-amino-8-[(2S)-butan-2-ylcarbamoyl][1,2,4]triazolo[1,5-a]pyridin-6-yl}-1H-pyrazol-1-yl)[6-(trifluoromethyl)pyridin-3-yl]methyl}piperidine-1-carboxylate] | 1.4 nM | 0.8 nM
12 | CC[C@H](C)NC(=O)c1cc(-c2cnn(C(c3ccc(OCC(F)(F)F)nc3)C(C)C)c2)cn2nc(N)nc12 (mixture of isomers) [Example I-88, 2-Amino-N-[(2S)-butan-2-yl]-6-(1-{2-methyl-1-[6-(2,2,2-trifluoroethoxy)pyridin-3-yl]propyl}-1H-pyrazol-4-yl)[1,2,4]triazolo[1,5-a]pyridine-8-carboxamide] | 120 nM | 7.5 nM

The next lines start with the values.

Row | IC50 (LZK) | IC50 (DLK) | SMILES
13 | 380 nM | 9.2 nM | CC[C@H](C)NC(=O)c1cc(-c2cnn(C(c3ccccc3)C3(C)CC3)c2)cn2nc(N)nc12 (mixture of isomers) [Example I-28, 2-Amino-N-[(2S)-butan-2-yl]-6-{1[(1-methylcyclopropyl)(phenyl)methyl]-1H-pyrazol-4-yl}[1,2,4]triazolo[1,5-a]pyridine-8-carboxamide]
14 | 150 nM | 3.8 nM | CC[C@H](C)NC(=O)c1cc(-c2cnn(C(c3ccccc3)C3CC(F)(F)C3)c2)cn2nc(N)nc12 (mixture of isomers) [Example I-31, 2-Amino-N-[(2S)-butan-2-yl]-6-{1-[(3,3-difluorocyclobutyl)(phenyl)methyl]-1H-pyrazol-4-yl}[1,2,4]triazolo[1,5-a]pyridine-8-carboxamide]
15 | 520 nM | 9.5 nM | CC[C@H](C)NC(=O)c1cc(-c2cnn(C(c3ccccc3)C(C)(C)C)c2)cn2nc(N)nc12 (mixture of isomers) [Example I-34, 2-Amino-N-[(2S)-butan-2-yl]-6-{1-[2,2-dimethyl-1-phenylpropyl]-1H-pyrazol-4-yl}[1,2,4]triazolo[1,5-a]pyridine-8-carboxamide]
16 | 240 nM | 3.6 nM | CC[C@H](C)NC(=O)c1cc(-c2cnn(C(CC(F)(F)F)c3ccccc3)c2)cn2nc(N)nc12 (mixture of isomers) [Example I-37, 2-Amino-N-[(2S)-butan-2-yl]-6-{1-[3,3,3-trifluoro-1-phenylpropyl]-1H-pyrazol-4-yl}[1,2,4]triazolo[1,5-a]pyridine-8-carboxamide]
17 | 67 nM | 4.5 nM | CC[C@H](C)NC(=O)c1cc(-c2cnn(C(COC)c3ccccc3)c2)cn2nc(N)nc12 (mixture of isomers) [Example I-40, 2-Amino-N-[(2S)-butan-2-yl]-6-[1-(2-methoxy-1-phenylethyl)-1H-pyrazol-4-yl][1,2,4]triazolo[1,5-a]pyridine-8-carboxamide]
18 | 6.5 nM | 2.1 nM | CCC(c1ccc(C(F)(F)F)nc1)n1cc(-c2cc(C(=O)N[C@@H](C)CC)c3nc(N)nn3c2)cn1 (mixture of isomers) [Example I-70, 2-Amino-N-[(2S)-butan-2-yl]-6-(1-{1-[6-(trifluoromethyl)pyridin-3-yl]propyl}-1H-pyrazol-4-yl)[1,2,4]triazolo[1,5-a]pyridine-8-carboxamide]
19 | 38 nM | 4.7 nM | CCC(c1ccc(OCC(F)(F)F)nc1)n1cc(-c2cc(C(=O)N[C@@H](C)CC)c3nc(N)nn3c2)cn1 (mixture of isomers) [Example I-85, 2-Amino-N-[(2S)-butan-2-yl]-6-(1-{1-[6-(2,2,2-trifluoroethoxy)pyridin-3-yl]propyl}-1H-pyrazol-4-yl)[1,2,4]triazolo[1,5-a]pyridine-8-carboxamide]
